Earlier results, collected in US20180256601A1, “URSODEOXYCHOLIC ACID AND BRAIN DISORDERS” (priority 2015, published 2018).
Entries after “also recorded” stand apart in the source; their conditions may differ.

Legend:
ALS patients = settings: 1 g twice daily; 17 ALS patients
cellular model of HD = settings: coincubation with 3-NP
prion disease = settings: Cortez et al, 2015
[1] = in vivo
[2] = worldwide postmarketing and clinical experience
[3] = post approval use
PBC patients = settings: sixty PBC patients
[4] = in divided doses (Parry et al, 2010)
[5] = oral; 450 mg UDCA, or complex containing 426 mg UDCA
[6] = not given; remark: listed apart in the source
cell model of ALS = cell model of ALS (Vaz et al, 2015)

C[C@H](CCC(=O)NCCS(=O)(=O)O)[C@H]1CC[C@H]2[C@@H]3[C@@H](O)C[C@@H]4C[C@H](O)CC[C@]4(C)[C@H]3CC[C@]12C [TUDCA, tauroursodeoxycholic acid]
Amyotrophic Lateral Sclerosis Functional Rating Scale Revised (ALS patients): significant improvements
mitochondrial cytochrome c release and mitochondrial membrane alterations (cellular model of HD): prevented
reduction in apoptosis (cellular model of HD): ~80%
therapeutic effects in prion disease (prion disease): variety of therapeutic effects

C[C@H](CCC(=O)O)[C@H]1CC[C@H]2[C@@H]3[C@@H](O)C[C@@H]4C[C@H](O)CC[C@]4(C)[C@H]3CC[C@]12C [UDCA, Ursodeoxycholic Acid]
percentage of UDCA in the bile pool after administration of exogenous UDCA [1]: 55 to 60%
frequency of common adverse reactions: abdominal discomfort, abdominal pain, alopecia, diarrhea, nausea, pruritus, rash [2]: ≥ 1%
Adverse Reactions: Musculoskeletal and connective tissue disorders [3]: Myalgia
Adverse Reactions: Nervous system disorders [3]: dizziness, headache
Adverse Reactions: Respiratory, thoracic and mediastinal disorders [3]: Cough
Adverse Reactions: Gastrointestinal disorders ([3]; listed as ursodiol): abdominal discomfort,; also recorded: abdominal pain,; also recorded: constipation, diarrhea,; also recorded: dyspepsia, nausea,; also recorded: vomiting
Adverse Reactions: General disorders and administration site conditions ([3]; listed as ursodiol): malaise, peripheral; also recorded: edema, pyrexia
Adverse Reactions: Immune System Disorders ([3]; listed as ursodiol): Drug hypersensitivity; also recorded: edema, urticaria,; also recorded: laryngeal edema
Adverse Reactions: Skin and subcutaneous tissue disorder ([3]; listed as ursodiol): alopecia, pruritus, and rash
abdominal pain and asthenia (PBC patients): 1 patient
anorexia (PBC patients): 1 patient
dyspepsia (PBC patients): 2 patients
esophagitis (PBC patients): 1 patient
nausea (PBC patients): 3 patients
patients who reported adverse reactions (PBC patients; seven patients, nine adverse reactions): 11.6%
dose well tolerated without significant neurotoxic effects [4]: up to 50 mg/kg/day
elimination half-life (adults): 72 to 140 h
bile UDCA levels following discontinuation of therapy, as share of average steady state concentrations (in vivo): 5 to 10%
time to steady state concentrations (on average, from starting therapy): ≤ 3 weeks
fraction of oral dose excreted via the urine (oral): 1%
fraction of exogenous UDCA absorbed (oral delivery, passive diffusion by the proximal jejunum and ileum): ~90%
Cmax [5]: 6100 ng/mL
t1/2(abs) [5]: 0.9 h
tmax [5]: 1.38 h
correlation between serum concentrations 1 hour after dosing and cerebrospinal fluid concentrations 2 hours after dosing ([6]; 18 ALS patients (Parry et al, 2010)): strong statistically significant correlation
time of serum level peak ([6]; after oral administration): 30 to 50 min
blood-brain barrier crossing ([6]; in vivo): crosses the blood-brain barrier in a dose-dependent manner

C[C@H](CCC(=O)NCC(=O)O)[C@H]1CC[C@H]2[C@@H]3[C@@H](O)C[C@@H]4C[C@H](O)CC[C@]4(C)[C@H]3CC[C@]12C [GUDCA, glycoursodeoxycholic acid]
mitochondrial dysfunction, caspase-9 activation, matrix metalloproteinase activation, nitrogen oxide (NO) generation (cell model of ALS): decrease
